For 25 molecules, IC50 results are on record in patent US8901114B2, “Oxathiazine derivatives substituted with carbocycles or heterocycles, method for producing same, drugs containing said compounds, and use thereof” (Sanofi, priority 2011, dated 2014).

The structures appear in SMILES notation.

human 11β-HSD1 microsome fraction, sequence (P28845 whole entry): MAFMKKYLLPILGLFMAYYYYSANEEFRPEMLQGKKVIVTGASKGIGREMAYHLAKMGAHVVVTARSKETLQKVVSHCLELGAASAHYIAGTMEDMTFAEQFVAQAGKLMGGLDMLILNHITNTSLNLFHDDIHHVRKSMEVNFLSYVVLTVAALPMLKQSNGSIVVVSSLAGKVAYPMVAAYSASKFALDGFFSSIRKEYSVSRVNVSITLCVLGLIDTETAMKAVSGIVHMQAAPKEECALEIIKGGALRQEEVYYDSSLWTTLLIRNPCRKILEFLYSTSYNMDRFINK

In this assay the target is human 11β-HSD1 microsome fraction (Homo sapiens, UniProt P28845). Put plainly: Enzymatic 11beta-HSD1 test (SPA-based detection). In kind it is biochemical. Conditions: human 11β-HSD1 microsomes, [1,2-3H]-cortisone, NADPH, 37° C., 1 hour; read-out: IC50 (nM), Biological activity in nanomolar. How it is done: Enzymatic 11beta-HSD1 test:
First of all, 20 μl of the human 11β-HSD1 microsome fraction (0.2 μg of protein), prepared in 50 mM HEPES, 0.1% BSA (w/v), were applied to a plate with 384 wells. The test compounds (0.09 μl) were applied to the assay plate in 100% DMSO. The reaction was started by addition of 20 μl of [1,2-^3H]-cortisone (0.1 μCi/[…]) in assay buffer comprising 25 mM HEPES, 100 mM KCl, 5 mM NaCl, 2 mM MgCl2 and 0.25 mM NADPH. The plate was agitated at 37° C. for 1 hour. At the same time, a stop solution comprising 20 mg/ml SPA-PVT beads, 1.6 mg/ml monoclonal cortisol antibody and 0.01 mM SSR110887 (inhibitor from the Biovitrium patent) in 50 mM HEPES, 1 M NaCl and 1 M KCl was stirred at room temperature. To stop the reaction, 25 μl of the stop solution were added to each well. The plate was agitated gently at room temperature for 1 further hour and then centrifuged at 500 gav for […], in order that the SPA beads could settle out. […] The comparative compound was glycyrrhetinic acid.
Protein and radioactive substrate were dispensed with a Biomek FX unit (Beckman Coulter) for handling liquids. The test compounds were added with a Cybi-Well equipped with a 90 nl pin tool (CyBio).
Lit.: Solly S, Mundt S S, Zokian H J, Juy-Fang Ding G, Hermanowski-Vosatka A, Strulovici B and Zheng W. High-throughput screening of 11β-Hydroxysteroid dehydrogenase type 1 in scintillation proximity format.
Take `C[C@@H]1[C@@H](NC2=NS(=O)(=O)C3CCCCC3O2)C[C@H]2C[C@@H]1C2(C)C` (stereo partly drawn) [Example 56, (1,1-Dioxo-4a,5,6,7,8,8a-hexahydro-1H-1lambda6-benzo[1,4,3]oxathiazin-3-yl)-((1S,2S,3S,5R)-2,6,6-trimethyl-bicyclo[3.1.1]hept-3-yl)-amine]: the IC50 came to 16 nM. As to `O=S1(=O)N=C(NC23CCC(CC2)CC3)OC2CCCC21` (stereo not shown) [Example 72, Bicyclo[2.2.2]oct-1-yl-(1,1-dioxo-1,4a,5,6,7,7a-hexahydro-1lambda6-cyclopenta[1,4,3]oxathiazin-3-yl)-amine], the IC50 stood at 74 nM. With `CC1(C)C2CCC1C(NC1=NS(=O)(=O)C3CCCCC3O1)C2O` (stereo not shown) [Example 41, 3-(1,1-Dioxo-4a,5,6,7,8,8a-hexahydro-1H-1lambda6-benzo[1,4,3]oxathiazin-3-ylamino)-7,7-dimethyl-bicyclo[2.2.1]heptan-2-ol], the IC50 stood at 497 nM. For `O=S1(=O)N=C(NN2CCCCCC2)OC2CCCCC21` (stereo not shown) [Example 66, Azepan-1-yl-(1,1-dioxo-4a,5,6,7,8,8a-hexahydro-1H-1lambda6-benzo[1,4,3]oxathiazin-3-yl)-amine], the IC50 was 148 nM.

In the case of `CC1(C)[C@@H]2CC[C@@]1(C)[C@H](NC1=NS(=O)(=O)C3CCCCC3O1)C2` (single isomer, unassigned) [Example 9], the IC50 was 5 nM.

For the molecule `O=S1(=O)N=C(N[C@@H]2CCCC[C@H]2CO)O[C@H]2CCCC[C@H]21` [Example 59, [(1R,2R)-2-((4aS,8aR)-1,1-Dioxo-4a,5,6,7,8,8a-hexahydro-1H-1lambda6-benzo[1,4,3]oxathiazin-3-ylamino)-cyclohexyl]-methanol], the IC50 worked out at 658 nM.

With `CC1(C)[C@@H]2CC[C@@]1(C)[C@H](NC1=NS(=O)(=O)C3CCCCC3O1)C2` (single isomer, unassigned) [Example 14], the IC50 worked out at 236 nM. The result for `CC12CCC(NC3=NS(=O)(=O)[C@@H]4CCCC[C@@H]4O3)(CC1)CC2` [Example 13, ((4aS,8aR)-1,1-Dioxo-4a,5,6,7,8,8a-hexahydro-1H-1lambda6-benzo[1,4,3]oxathiazin-3-yl)-(4-methyl-bicyclo[2.2.2]oct-1-yl)-amine] reads 5 nM; that for `CC12CCC(NC3=NS(=O)(=O)[C@H]4CCCC[C@H]4O3)(CC1)CC2` [Example 5, ((4aR,8aS)-1,1-Dioxo-4a,5,6,7,8,8a-hexahydro-1H-1lambda6-benzo[1,4,3]oxathiazin-3-yl)-(4-methyl-bicyclo[2.2.2]oct-1-yl)-amine], 8 nM. Regarding `CC(C)[C@]12CC(NC3=NS(=O)(=O)C4CCCCC4O3)[C@H](C)[C@H]1C2` (stereo partly drawn) [Example 53, (1,1-Dioxo-4a,5,6,7,8,8a-hexahydro-1H-1lambda6-benzo[1,4,3]oxathiazin-3-yl)-((1S,4R,5R)-1-isopropyl-4-methyl-bicyclo[3.1.0]hex-3-yl)-amine], the IC50 stood at 54 nM.

For the molecule `CC(C)CC(CC(C)C)NC1=NS(=O)(=O)C2CCCCC2O1` (stereo not shown) [Example 55, (1,1-Dioxo-4a,5,6,7,8,8a-hexahydro-1H-1lambda6-benzo[1,4,3]oxathiazin-3-yl)-(1-isobutyl-3-methyl-butyl)-amine], the IC50 stood at 670 nM. The result for `CC12CCCCC1S(=O)(=O)N=C(NC1CCCCC1)O2` (stereo not shown) [Example 89, Cyclohexyl-(4a-methyl-1,1-dioxo-4a,5,6,7,8,8a-hexahydro-1H-1lambda6-benzo[1,4,3]oxathiazin-3-yl)-amine] reads 49 nM; that for `CC1(C)[C@@H]2CC[C@@]1(C)[C@@H](NC1=NS(=O)(=O)C3CCCCC3O1)C2` (stereo partly drawn) [Example 36, (1,1-Dioxo-4a,5,6,7,8,8a-hexahydro-1H-1lambda6-benzo[1,4,3]oxathiazin-3-yl)-((1R,2S,4R)-1,7,7-trimethyl-bicyclo[2.2.1]hept-2-yl)-amine], 59 nM; that for `O=S1(=O)N=C(NCC2CCCCO2)OC2CCCCC21` (stereo not shown) [Example 47, (1,1-Dioxo-4a,5,6,7,8,8a-hexahydro-1H-1lambda6-benzo[1,4,3]oxathiazin-3-yl)-(tetrahydro-pyran-2-ylmethyl)-amine], 165 nM. `O=S1(=O)N=C(NN2CC3CCCC3C2)OC2CCCCC21` (stereo not shown) [Example 65, (1,1-Dioxo-4a,5,6,7,8,8a-hexahydro-1H-1lambda6-benzo[1,4,3]oxathiazin-3-yl)-(hexahydro-cyclopenta[c]pyrrol-2-yl)-amine]: the IC50 was 308 nM.

As to `CC1CC(NC2=NS(=O)(=O)C3CCCCC3O2)CC(C)(C)C1` (stereo not shown) [Example 23, (1,1-Dioxo-4a,5,6,7,8,8a-hexahydro-1H-1lambda6-benzo[1,4,3]oxathiazin-3-yl)-(3,3,5-trimethyl-cyclohexyl)-amine], the half-inhibitory concentration (IC50) was determined as 20 nM. Consider `O=S1(=O)N=C(N[C@H]2CC[C@H](O)CC2)OC2CCCCC21` (stereo partly shown) [Example 81, 4-(1,1-Dioxo-4a,5,6,7,8,8a-hexahydro-1H-1lambda6-benzo[1,4,3]oxathiazin-3-ylamino)-cyclohexanol], for which the half-maximal inhibitory concentration (IC50) amounted to 355 nM. On to `CC1(C)[C@@H]2CC[C@@]1(C)[C@H](O)[C@H]2NC1=NS(=O)(=O)C2CCCCC2O1` (stereo partly drawn) [Example 38, (1R,2S,3S,4S)-3-(1,1-Dioxo-4a,5,6,7,8,8a-hexahydro-1H-1lambda6-benzo[1,4,3]oxathiazin-3-ylamino)-1,7,7-trimethyl-bicyclo[2.2.1]heptan-2-ol], for which the IC50 came out at 570 nM. For the molecule `O=S1(=O)N=C(NC(C2CC2)C2CC2)OC2CCCCC21` (stereo not shown) [Example 39, Dicyclopropylmethyl-(1,1-dioxo-4a,5,6,7,8,8a-hexahydro-1H-1lambda6-benzo[1,4,3]oxathiazin-3-yl)-amine], the half-maximal inhibitory concentration (IC50) amounted to 440 nM. Turning to `C[C@@H](NC1=NS(=O)(=O)C2CCCCC2O1)C1CCCCC1` (stereo partly drawn) [Example 29, ((R)-1-Cyclohexyl-ethyl)-(1,1-dioxo-4a,5,6,7,8,8a-hexahydro-1H-1lambda6-benzo[1,4,3]oxathiazin-3-yl)-amine], the IC50 was 275 nM. Under `CC(C)C(NC1=NS(=O)(=O)C2CCCCC2O1)c1cccs1` (stereo not shown) [Example 25, (1,1-Dioxo-4a,5,6,7,8,8a-hexahydro-1H-1lambda6-benzo[1,4,3]oxathiazin-3-yl)-(2-methyl-1-thiophen-2-yl-propyl)-amine] stands 121 nM. For the molecule `CC12CCC(NC3=NS(=O)(=O)C4CCCC4O3)(CC1)CC2` (stereo not shown) [Example 64, (1,1-Dioxo-1,4a,5,6,7,7a-hexahydro-1lambda6-cyclopenta[1,4,3]oxathiazin-3-yl)-(4-methyl-bicyclo[2.2.2]oct-1-yl)-amine], the IC50 was 38 nM.

In the case of `O=S1(=O)N=C(NC2CCSc3ccccc32)OC2CCCCC21` (stereo not shown) [Example 48, (1,1-Dioxo-4a,5,6,7,8,8a-hexahydro-1H-1lambda6-benzo[1,4,3]oxathiazin-3-yl)-thiochroman-4-yl-amine], the IC50 is 93 nM. As to `O=S1(=O)N=C(N[C@@H]2C[C@H]3CC[C@@H]2C3)OC2CCCCC21` (stereo partly drawn) [Example 62, (1R,2R,4S)-Bicyclo[2.2.1]hept-2-yl-((5S,6R)-1,1-dioxo-4a,5,6,7,8,8a-hexahydro-1H-1lambda6-benzo[1,4,3]oxathiazin-3-yl)-amine], the IC50 amounted to 43 nM. Turning to `O=S1(=O)N=C(NC2CC[C@H]3CC[C@@H]2C3)OC2CCCCC21` (stereo partly drawn) [Example 54, (1R,5R)-Bicyclo[3.2.1]oct-2-yl-(1,1-dioxo-4a,5,6,7,8,8a-hexahydro-1H-1lambda6-benzo[1,4,3]oxathiazin-3-yl)-amine], the IC50 was determined as 29 nM.

Broadly, the IC50 is the concentration at which inhibition is half-maximal.
